# Reference: patent US4781863A, “Aminocarnitines” (Cornell Research Foundation, Inc., priority 1987, dated 1988)
# Columns and labels:
# [1] = cited from earlier work
# [2] = molecular target: T1, carnitine acetyltransferase (Columba livia, UniProt P52826); assay: carnitine acetyltransferase inhibition assay (coupled CS/MDH, NADH at 340 mμ); format: biochemical
# T1 sequence (P52826 31-627): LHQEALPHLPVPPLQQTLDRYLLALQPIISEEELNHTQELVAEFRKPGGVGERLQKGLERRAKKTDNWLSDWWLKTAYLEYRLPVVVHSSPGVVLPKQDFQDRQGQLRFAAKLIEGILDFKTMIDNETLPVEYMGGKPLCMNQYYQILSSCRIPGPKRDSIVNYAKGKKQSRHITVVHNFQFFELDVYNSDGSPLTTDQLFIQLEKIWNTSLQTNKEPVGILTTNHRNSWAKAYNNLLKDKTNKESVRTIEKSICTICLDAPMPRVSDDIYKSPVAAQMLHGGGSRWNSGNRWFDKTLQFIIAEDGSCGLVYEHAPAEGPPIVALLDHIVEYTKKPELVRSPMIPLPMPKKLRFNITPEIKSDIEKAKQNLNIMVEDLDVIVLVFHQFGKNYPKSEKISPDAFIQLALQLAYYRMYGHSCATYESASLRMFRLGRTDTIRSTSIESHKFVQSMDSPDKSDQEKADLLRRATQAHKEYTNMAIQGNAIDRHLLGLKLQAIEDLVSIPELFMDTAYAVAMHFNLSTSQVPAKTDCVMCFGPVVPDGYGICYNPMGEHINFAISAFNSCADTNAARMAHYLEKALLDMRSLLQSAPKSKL
# Experimental: D,L-3-acetamido-4-trimethylaminobutyric acid.H2 O, referred to hereinafter as AAC, was assayed for inhibition of carnitine acetyltransferase.
# The procedure used is described in Fritz, I. B., Schultz, S. K., and Srere, P. A., "Properties of Partially Purified Carnitine Acetyltransferase", J. Biol. Chem., 238, 2509-2517 (1963).
# The assay was based on the following reactions wherein CAT is used to denote carnitine acetyltransferase, CS is used to denote citrate synthase, MDH is used to denote malate dehydrogenase, NAD is used to denote β-nicotinamide adenine dinucleotide (unreduced form) and NADH is used to denote β-nicotinamide adenine dinucleotide (reduced form):
# The assay is based on the fact that the velocity of reaction to produce acetyl-Coenzyme A is reduced to the extent that CAT is inhibited. Reactions (2) and (3) are a detection system for acetyl-Coenzyme A wherein acetyl-Coenzyme A, as it is produced, reacts with oxaloacetate thereby causing the MDH to catalyze production of oxaloacetate to replace that which is used and resulting in production of NADH which is detected using a spectrophotometer based on its property of absorbing light at 340 mμ. Thus, when CAT is bound and inhibited, the rate of NADH production is decreased and the rate of increase of absorbency at 340 mμ is decreased. The results are readily compiled in a Lineweaver-Burk plot of the reciprocal of reaction velocity versus the reciprocal of concentration of acetylcarnitine and the data can be analyzed to o provide Ki ' values as mentioned above.
# Sixteen runs were carried out. They consisted of a set of 4 runs where 1 mM of D,L-acetylcarnitine (pH 8.0) was included, a set of 4 runs where 2 mM of D,L-acetylcarnitine was included, a set of 4 runs where 5 mM of D,L-acetylcarnitine was included and a set of 4 runs where 10 mM of D,L-acetylcarnitine was included. In each set of runs, one run was conducted without AAC, one run was conducted with 0.1 mM AAC, one run was conducted with 0.5 mM AAC, and one run was conducted with 1.0 mM AAC.
# Each run was carried out utilizing a cuvette with 1 ml total being added to it. To each cuvette was added 0.7 ml of a premix of aqueous solutions of Tris-HCl buffer, NAD^+, dithiothreitol, and Tris D,L-malate, pH of 8.0 (concentrations in the premix were as follows: Tris-HCl, 143 mM; NAD^+, 0.71 mM; dithiothreitol, 4.3 mM; and Tris D,L-malate, 14.3 mM, the selected amount of D,L-acetylcarnitine as described above, 0.05 ml of a 4 mM aqueous solution of Coenzyme A, 0.025 ml of a 168 units/ml solution of CS, 0.025 ml of a 240 units/ml solution of MDH, the selected amount of AAC as described above, and water to 0.995 ml. The D,L-acetylcarnitine was added utilizing solution of concentration of 100 mM (in other words 0.010 ml for the first set of runs, 0.020 ml for the second set of runs, 0.050 ml for the third set of runs, 0.100 ml for the fourth set of runs). The AAC was added utilizing solution of concentration of 100 mM (in other words, additions for runs in each set were of 0 ml, 0.001 ml, 0.005 ml and 0.010 ml).
# After the above described reactants were added, each cuvette and its contents were incubated for 15 minutes at 30° C.
# Directly after the incubation period, 0.005 ml of CAT (concentration 5 units/ml) was added in each case.
# The reaction rate in each case was measured as described above as a function of change in absorbance at 340 mμ (providing a time course of NADH formation) and was expressed as mole NADH/min. (1 mM NADH =6.2×ΔA340).
# A Ki 'value for the D,L form of AAC was calculated to be 5×10^-5 M which is 10^-2 to 10^-3 times the Ki ' values found by Fritz and Schultz for the compounds they tested.
# [3] = toxicity of administered amount in mice; format: in vivo; details: 5 mmol/kg intraperitoneally
# Experimental: (§1) Four mice were injected subcutaneously with 0.5 mmol/kg carbon 14 tagged acetylcarnitine. Two of them were injected intraperitoneally with 5 mmol/kg of AAC. The carbon 14 CO2 output of the mice was monitored every 15 minutes for 6 hours and for each mouse a graph was prepared with time on the X-axis and % of radiolabelled CO2 on the Y-axis. […] The amount of AAC administered was not toxic to the mice.
# CAT = molecular target: T2, CAT (Mus musculus, UniProt P47934); assay: carbon 14 CO2 output of mice given carbon 14 tagged acetylcarnitine; format: in vivo; details: 5 mmol/kg intraperitoneally, 0.5 mmol/kg carbon 14 acetylcarnitine subcutaneously, monitored 6 hours
# T2 construct: from tissue; host or cells: whole living mice (endogenous enzyme)
# T2 sequence (P47934 1-626): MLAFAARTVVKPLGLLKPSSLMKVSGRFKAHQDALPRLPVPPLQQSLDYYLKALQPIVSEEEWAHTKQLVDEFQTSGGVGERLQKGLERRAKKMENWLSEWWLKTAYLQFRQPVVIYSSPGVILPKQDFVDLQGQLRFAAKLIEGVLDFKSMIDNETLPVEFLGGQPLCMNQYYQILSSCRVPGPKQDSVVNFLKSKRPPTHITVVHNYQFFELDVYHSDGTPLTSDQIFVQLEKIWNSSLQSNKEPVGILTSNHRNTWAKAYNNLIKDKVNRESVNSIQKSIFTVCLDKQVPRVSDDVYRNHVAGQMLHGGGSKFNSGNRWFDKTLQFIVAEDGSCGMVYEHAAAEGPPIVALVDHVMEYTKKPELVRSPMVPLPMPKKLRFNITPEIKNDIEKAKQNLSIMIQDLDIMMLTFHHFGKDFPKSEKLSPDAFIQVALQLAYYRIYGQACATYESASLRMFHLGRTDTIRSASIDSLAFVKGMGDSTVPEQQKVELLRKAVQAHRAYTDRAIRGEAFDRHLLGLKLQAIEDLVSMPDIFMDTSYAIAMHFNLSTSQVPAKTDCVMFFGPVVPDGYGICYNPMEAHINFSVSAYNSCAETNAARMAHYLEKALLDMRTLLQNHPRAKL
# Experimental: as §1
# [4] = tested on: carnitine palmitoyltransferase; assay: binding and inhibition of carnitine palmitoyltransferase; format: biochemical; details: no test described
compound,measurement,setting,value
C[N+](C)(C)CC(CC(=O)[O-])OC(=O)CBr [Bromoacetyl-L-carnitine],toxicity in vivo,[1],toxicity due to release of bromine and/or bromoacetate
"C[N+](C)(C)CC(CC(=O)[O-])NC(=O)CBr (racemic) [D,L-3-bromoacetamido-4-trimethylaminobutyricacid.H2 O]",reversibility of binding action,[2],irreversible
same,inhibition of CAT,[2]; no test described,inhibits CAT similarly to AAC
"CC(=O)NC(CC(=O)[O-])C[N+](C)(C)C (racemic) [AAC, D,L-3-acetamido-4-trimethylaminobutyric acid.H2 O]",toxicity of the amount administered,[3],not toxic
same,rate of radiolabelled CO2 output,CAT,retarded rate of radiolabelled CO2 output
same,Ki' relative to the Ki' values found by Fritz and Schultz for the compounds they tested,[2],10^-2 to 10^-3 times
same,reversibility of binding action,[2],reversible by dilution
same,Ki,"[2]; D,L form, Lineweaver-Burk plot, 1-10 mM D,L-acetylcarnitine, pH 8.0, 30° C",50 µM
same,mode of inhibition of CAT,"[2]; Lineweaver-Burk plot, same site as acetyl carnitine",competitive inhibitor
same,inhibition at 100 µM,"[2]; at a concentration of 0.1 mM, read-out: inhibition of formation of acetyl-Coenzyme A",34%
same,inhibition at 500 µM,"[2]; at a concentration of 0.5 mM, read-out: inhibition of formation of acetyl-Coenzyme A",67%
same,inhibition at 1000 µM,"[2]; at a concentration of 1 mM, read-out: inhibition of formation of acetyl-Coenzyme A",81%
same,binding to CAT relative to acetylcarnitine (times more tightly),[2]; from Lineweaver-Burk plot,18 times
"CCCCCCCCCCCCCCCC(=O)NC(CC(=O)[O-])C[N+](C)(C)C (racemic) [PAC, D,L-3-palmitoamido-4-trimethylaminobutyric acid.H2 O]",binding and inhibition of carnitine palmitoyltransferase,[4],readily binds to and inhibits carnitine palmitoyltransferase
